Numbers after ± are expanded uncertainties.
What was measured:
[1] = refractive index (other wavelength) (dimensionless); details: 101.3 kPa, Liquid, Wavelength=632.8 nm, Standard Abbe refractometry
[2] = heat capacity at constant pressure per volume; xn = mol fraction of the nth substance listed; details: 101 kPa, Liquid, Differential Scanning Calorimeter, x1 = 0.133
[3] = refractive index (other wavelength) (dimensionless); xn = mol fraction of the nth substance listed; details: 296.27 K, 101 kPa, Liquid, Wavelength=632.8 nm, Standard Abbe refractometry

CCn1cc[n+](C)c1.O=S(=O)([N-]S(=O)(=O)C(F)(F)F)C(F)(F)F
[1]
Details | refractive index
285.03 K | 1.4252 ± 0.0004
287.17 K | 1.4246 ± 0.0004
288.97 K | 1.4242 ± 0.0004
290.28 K | 1.4238 ± 0.0004
291.11 K | 1.4236 ± 0.0004
292.19 K | 1.4233 ± 0.0004
293.16 K | 1.423 ± 0.0004
294.21 K | 1.4227 ± 0.0004
295.18 K | 1.4225 ± 0.0004
297.26 K | 1.4219 ± 0.0004

CCn1cc[n+](C)c1.O=S(=O)([N-]S(=O)(=O)C(F)(F)F)C(F)(F)F + CCCO
Details | heat capacity [J/K/m3] | refractive index
[2], 295 K | 2448000 ± 120000 | –
[2], 296 K | 2164000 ± 110000 | –
[2], 297 K | 2118000 ± 110000 | –
[2], 298 K | 2122000 ± 110000 | –
[2], 299 K | 2105000 ± 100000 | –
[2], 300 K | 2103000 ± 100000 | –
[2], 301 K | 2101000 ± 100000 | –
[2], 302 K | 2082000 ± 100000 | –
[2], 303 K | 2087000 ± 100000 | –
[2], 304.01 K | 2092000 ± 100000 | –
[2], 305 K | 2090000 ± 100000 | –
[2], 306 K | 2090000 ± 100000 | –
[2], 307 K | 2094000 ± 100000 | –
[2], 308 K | 2095000 ± 100000 | –
[2], 309 K | 2098000 ± 100000 | –
[2], 310 K | 2097000 ± 100000 | –
[2], 311 K | 2098000 ± 100000 | –
[2], 312 K | 2102000 ± 100000 | –
[2], 313 K | 2103000 ± 100000 | –
[2], 314 K | 2103000 ± 100000 | –
[2], 315 K | 2108000 ± 100000 | –
[2], 316 K | 2108000 ± 100000 | –
[2], 317 K | 2111000 ± 110000 | –
[2], 318 K | 2113000 ± 110000 | –
[2], 319 K | 2114000 ± 110000 | –
[2], 320 K | 2117000 ± 110000 | –
[2], 321 K | 2117000 ± 110000 | –
[2], 322 K | 2121000 ± 110000 | –
[2], 323 K | 2124000 ± 110000 | –
[2], 324 K | 2125000 ± 110000 | –
[2], 325 K | 2124000 ± 110000 | –
[2], 326 K | 2129000 ± 110000 | –
[2], 327 K | 2131000 ± 110000 | –
[2], 328 K | 2133000 ± 110000 | –
[2], 329.01 K | 2135000 ± 110000 | –
[2], 330 K | 2134000 ± 110000 | –
[2], 331 K | 2139000 ± 110000 | –
[3], x1 = 0.021 | – | 1.3854 ± 0.0004
[3], x1 = 0.056 | – | 1.3896 ± 0.0004
[3], x1 = 0.097 | – | 1.3935 ± 0.0004
[3], x1 = 0.142 | – | 1.3971 ± 0.0004
[3], x1 = 0.149 | – | 1.3977 ± 0.0004
[3], x1 = 0.192 | – | 1.4006 ± 0.0004
[3], x1 = 0.243 | – | 1.4036 ± 0.0004
[3], x1 = 0.306 | – | 1.4064 ± 0.0004
[3], x1 = 0.397 | – | 1.4099 ± 0.0004
[3], x1 = 0.502 | – | 1.4131 ± 0.0004
[3], x1 = 0.699 | – | 1.4174 ± 0.0004
[3], x1 = 0.855 | – | 1.4199 ± 0.0004
[3], x1 = 1 | – | 1.4222 ± 0.0004

CCCO [propan-1-ol]
[1]
Details | refractive index
284.73 K | 1.387 ± 0.0004
286.91 K | 1.3861 ± 0.0004
288.21 K | 1.3856 ± 0.0004
289.24 K | 1.3851 ± 0.0004
290.26 K | 1.3847 ± 0.0004
291.26 K | 1.3843 ± 0.0004
292.59 K | 1.3837 ± 0.0004
293.69 K | 1.3833 ± 0.0004
296.27 K | 1.3823 ± 0.0004

CCCO [propan-1-ol] + CCn1cc[n+](C)c1.O=S(=O)([N-]S(=O)(=O)C(F)(F)F)C(F)(F)F
Details | refractive index
[3], x2 = 0 | 1.3823 ± 0.0004

Reference: the NIST ThermoML archive (doi:10.1021/je5003779)
